PMC6743424, “Phenolic acid phenethylesters and their corresponding ketones: Inhibition of 5‐lipoxygenase and stability in human blood and HepaRG cells” (Pharmacology Research & Perspectives, 2019)
“Also recorded” adds a separate entry of the source.

Key:
5‐LO [1] = conditions: cited from earlier work
5‐LO [2] = molecular target: T1, 5‐LO (Homo sapiens, UniProt P09917); experiment: Biosynthesis of 5‐LO products in stimulated HEK293 cells expressing 5‐LO and FLAP; assay type: cell-based; parameters: expressed in transfected cells; host or cells: HEK293 cells (ATCC), stably transfected; conditions: 1 μmol/L, 5 min preincubation; 10 μmol/L A23187 + 10 μmol/L arachidonic acid 15 min
T1 sequence (P09917 1-674): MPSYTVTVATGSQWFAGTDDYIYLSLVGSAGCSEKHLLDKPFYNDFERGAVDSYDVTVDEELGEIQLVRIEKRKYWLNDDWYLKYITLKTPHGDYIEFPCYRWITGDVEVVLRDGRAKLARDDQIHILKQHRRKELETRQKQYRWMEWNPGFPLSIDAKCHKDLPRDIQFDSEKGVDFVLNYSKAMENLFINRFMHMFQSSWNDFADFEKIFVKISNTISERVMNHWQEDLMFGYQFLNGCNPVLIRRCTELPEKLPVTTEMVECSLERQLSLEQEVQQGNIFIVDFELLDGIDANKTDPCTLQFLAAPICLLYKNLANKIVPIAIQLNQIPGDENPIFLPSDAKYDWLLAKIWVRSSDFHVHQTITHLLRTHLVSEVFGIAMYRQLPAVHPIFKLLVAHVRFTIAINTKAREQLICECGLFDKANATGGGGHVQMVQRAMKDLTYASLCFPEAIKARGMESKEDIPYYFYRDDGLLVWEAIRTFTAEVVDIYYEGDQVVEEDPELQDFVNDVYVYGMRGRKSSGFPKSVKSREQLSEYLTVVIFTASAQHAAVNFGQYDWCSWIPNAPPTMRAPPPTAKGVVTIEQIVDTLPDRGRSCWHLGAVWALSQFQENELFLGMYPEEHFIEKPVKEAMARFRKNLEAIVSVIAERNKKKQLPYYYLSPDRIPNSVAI
Method: HEK293 cells were obtained from ATCC (Manassas) and were cultured in Dulbecco’s Modified Eagle Medium (DMEM) supplemented with 10% fetal bovine serum. Cells were stably transfected with 5‐lipoxygenase and 5‐lipoxygenase activating protein (FLAP) as previously described.31
Transfected HEK293 cells were collected and resuspended in Hank's balanced salt solution (HBSS, Lonza) containing 1.6 mmol/L CaCl2 at a concentration of 5 × 10^5 cells/mL, and were preincubated with each compound at concentration of 1 µmol/L for 5 minutes at 37°C. Cells were then stimulated for 15 minutes at 37°C with the addition of 10 µmol/L calcium ionophore A23187 (Sigma‐Aldrich) and 10 µmol/L arachidonic acid (Cayman Chemical).28 Stimulations were stopped by adding 0.5 volume of cold CH3OH:CH3CN (1:1) containing 100 ng/mL of prostaglandin B2 (PGB2) as internal standard. Samples were stored at −20°C and analyzed for 5‐LO products using reversed‐phase high‐performance liquid chromatography (RP‐HPLC) as described previously.32
Figure 2 The structures of the tested compounds (A) and their effects on the biosynthesis of 5‐LO products in transfected HEK293 cells (B). HEK293 cells expressing 5‐LO and FLAP were incubated in presence of the indicated compounds (1 μmol/L) or their diluent (Control, 0.1% DMSO) for 5 minutes, followed by the addition of 10 μmol/L calcium ionophore A23187 and 10 μmol/L arachidonic acid for 15 minutes. Reactions were then stopped, and samples were processed for analysis of 5‐LO products using RP‐HPLC. Total 5‐LO products measured represent the sum of LTB4, its trans isomers and 5‐hydroxyeicosatetraenoic acid. Data are expressed as means ± SEM of at least three independent experiments. *Difference from control as determined using one‐way ANOVA with Dunnett's multiple comparison test (P < .05)

5‐LO [3] = molecular target: T1, 5‐LO; experiment: Biosynthesis of 5‐LO products in thapsigargin‐stimulated human PMNL; assay type: cell-based; parameters: endogenous in cells; host or cells: human polymorphonuclear leukocytes isolated from heparinized blood; conditions: 5‐LO product biosynthesis in human PMNL; mean (95% confidence interval)
Method: Heparinized blood (see Ethics statement) was collected, centrifuged at 200g for 10 minutes to collect plasma, and erythrocytes were sedimented in dextran. PMNL were obtained after centrifugation on a lymphocyte separation medium cushion (density, 1.077 g/mL) (Wisent) at 900 g for 20 minutes, followed by hypotonic lysis to remove residual erythrocytes.33 PMNL were counted and resuspended at 10^7 cells/mL in HBSS supplemented with 1.6 mmol/L CaCl2 and 0.3 U/mL adenosine deaminase (Sigma‐Aldrich). PMNL were preincubated with the test compounds or their diluent (0.1% DMSO) for 5 minutes at 37°C and were then stimulated with 1 µmol/L thapsigargin (Sigma‐Aldrich) for 15 minutes at 37°C.27 Reactions were stopped by adding two volumes of CH3OH:CH3CN (1:1) containing the internal standard PGB2 (100 ng/mL), and samples were processed for RP‐HPLC analysis of 5‐LO products.
(A) The structures of CAPE (2) and its analogues investigated in this study. (B) Isolated human PMNL were incubated in presence of test compounds (1 μmol/L) or their diluent (Control, 0.1% DMSO) for 5 minutes. PMNL were stimulated with 1 μmol/L of thapsigargin for 15 minutes at 37°C. The stimulation was then stopped, and samples were processed for analysis of 5‐LO products using RP‐HPLC. Total 5‐LO products measured represent LTB4, its trans isomers, 20‐OH‐LTB4, 20‐COOH‐LTB4 and 5‐hydroxyeicosatetraenoic acid. Data are expressed as means ± SEM of at least three independent experiments. *Difference from control, as determined using one‐way ANOVA with Dunnett's multiple comparison test (P < .05)

HepaRG cells [4] = experiment: Residual inhibition of 5‐LO product biosynthesis in blood after incubation with HepaRG cells; assay type: in vitro ADME, human; conditions: 50 µmol/L with HepaRG cells, after 60 minutes; medium added to blood, zymosan, LTB4
Method: (§1) Differentiated HepaRG cells, plated in 24 well plates, were washed with hepatocyte suspension medium (Williams E‐medium without phenol red, supplemented with 2 mmol/L Glutamax and […] HEPES) before addition of hepatocyte suspension medium (250 µL/well) containing (30 or 50 µmol/L) of the test compounds or their diluent. Cells were then incubated for 7.5, 15, 30, 60 or 90 minutes at 37°C after which the medium was removed.
In experiments where the inhibitory capacity of test compounds was to be determined after incubation with HepaRG cells, 125 µL of the hepatocyte suspension medium containing test compounds that had been collected at different time points from HepaRG cultures was added to 1 mL of heparinized blood. After a 5 minutes of preincubation, blood was then stimulated with opsonized zymosan and processed for HPLC analysis of 5‐LO metabolites as described above.
Figure 6 Stability of the test compounds for the inhibition of the biosynthesis of 5‐LO products following incubation with HepaRG cells. HepaRG cells were incubated with […] of hepatocyte suspension medium containing 50 µmol/L of test compounds for the indicated times at 37°C. Hepatocyte suspension medium (125 µL) was then removed and added to 1 mL of blood that was then incubated for 5 minutes and then stimulated with opsonized zymosan (4 mg/mL) for 30 minutes at 37°C. Blood was then centrifuged and plasma was collected and added to 1.2 mL of CH3OH:CH3CN (1:1). Samples were processed for analysis using RP‐HPLC for LTB4 quantification. Data are expressed as means ± SEM of at least three independent experiments. *Difference from time = 0, as determined using One‐way ANOVA with Dunnett's multiple comparison test (P < .05)

HepaRG cells [5] = experiment: Kinetics of test compound disappearance in HepaRG cell culture (HPLC); assay type: in vitro ADME, human; conditions: 30 µmol/L, 37°C; mean (95% confidence interval), four experiments
Method: Undifferentiated cryopreserved HepaRG cells (BioPredic International) were seeded in 12 or 24 well plates at 1.1 × 10^5 and 0.55 × 10^5 cells per well, respectively. Cells were cultured for 14 days in Williams E‐medium supplemented with 1% penicillin‐streptomycin (10 000 U/mL), 10% fœtal bovine serum (FBS), 50 mg/L hydrocortisone hemisuccinate, 5 mg/L insulin and 2 mmol/L Glutamax, and the medium was renewed every 2‐3 days. After 14 days, the culture medium was replaced by the same formulation as above supplemented with 2% dimethyl sulfoxide (DMSO) to induce differentiation. Cells were considered differentiated and ready for experiments after 14 days of differentiation (28 days after seeding).
as §1
In experiments where the test compounds incubated with HepaRG cells were to be measured, the cell layer was washed with 250 µL of hepatocyte suspension medium which was then pooled with the first medium. The mixture was then added to 250 µL of ice cold CH3OH:CH3CN (1:1, vol:vol) containing 10 µmol/L of phenethyl 3,4,5‐trimethoxycinnamate as an internal standard. The resulting solution was frozen at −80°C for 2 hour to precipitate any dissolved proteins, centrifuged at 1800g and the supernatant transferred to vials and stored at −20°C until HPLC analysis.
Figure 5 Kinetics of test compound disappearance in HepaRG cell culture. (A) HepaRG cells were incubated in 250 µL of hepatocyte suspension medium containing 30 µmol/L of test compounds for the indicated times at 37°C. Supernatants were removed and added to 250 µL of ice cold CH3OH:CH3CN (1:1 vol:vol) containing 10 µmol/L of phenethyl 3,4,5‐trimethoxycinnamate as an internal standard. The cell layer was washed with 250 µL of hepatocyte suspension medium and added to the above mixture. Samples were centrifuged at 1900g and the supernatants were collected for HPLC analysis as described in the Methods. Values are means ± SEM. (B) Calculated half‐lives of the test compounds in HepaRG cell cultures. Values are means (95% confidence interval). All data are from four independent experiments TEXT PRINTED IN THE PICTURE: (B) CAPE (2): Half-life (Minutes): 4.70 (4.42 - 5.02) | (B) 7: Half-life (Minutes): 6.42 (5.72 -7.31) | (B) 5: Half-life (Minutes): 3.71 (3.67-3.74) | (B) 8: Half-life (Minutes): 6.48 (6.01-7.04) | (B) 9: Half-life (Minutes): 4.38 (4.23 - 4.55) | (B) 10: Half-life (Minutes): 11.32 (10.21- 12.71)

5‐LO [6] = molecular target: T1, 5‐LO; experiment: Ex vivo whole blood stimulation with opsonized zymosan, 5‐LO products; assay type: cell-based; parameters: endogenous in cells; host or cells: human polymorphonuclear leukocytes isolated from heparinized blood; conditions: 5‐LO product biosynthesis in whole blood, mean (95% confidence interval)
Method: Blood was collected in tubes containing heparin as anticoagulant. Test compounds or their diluent control (DMSO, 0.1%) were added to 1 mL of heparinized blood at the indicated concentrations and incubated for 5 minutes in a water bath at 37°C. Stimulation was initiated with the addition of 125 μL of 40 mg/mL of opsonized zymosan, samples were then gently vortexed and incubated at 37°C for 30 minutes.34 Samples were then centrifuged at 960g for 10 minutes at 4°C, plasma was removed and added to tubes containing 4 volumes of CH3OH:CH3CN (1:1) containing 100 ng/mL of PGB2 as internal standard. Samples were stored overnight at −20°C, and then centrifuged at 3300g for 10 minutes. Samples were then purified on C18 cartridges, were eluted with CH3OH, dried under nitrogen, resuspended in 46% of CH3OH:CH3CN (1:1), and analyzed using RP‐HPLC as described above.

Question: With `O=C(O)/C=C/c1ccc(O)c(O)c1` [caffeic acid] as the compound, how does the “Inhibition of LT biosynthesis and 5‐LO activity” value (5‐LO [1]) read?
Answer: poor 5‐LO inhibitor

Question: With `O=C(/C=C/c1ccc(O)cc1O)OCCc1ccccc1` [compound 4] as the compound, how does the “Inhibition of biosynthesis of 5‐LO products in transfected HEK293 cells” value (“Inhibition … in transfected HEK293 cells” below) (5‐LO [2]) read?
Answer: without measurable effect; also recorded: without inhibitory activity

Question: For `O=C(/C=C/c1cccc(O)c1O)OCCc1ccccc1` [compound 3], which “Inhibition … in transfected HEK293 cells” value (5‐LO [2]) is on record?
Answer: very good inhibitory activity

Question: Which “Inhibition of LT biosynthesis” value (5‐LO [1]; at concentrations up to 10 µmol/L) does the source give for `O=C(C=Cc1ccccc1)OCCc1ccccc1` [cinnamic acid phenethyl ester] here?
Answer: do not inhibit LT biosynthesis

Question: Which “Inhibition of 5‐LO product biosynthesis” value (5‐LO [1]) does the source give for `O=C(CCc1ccc(O)c(O)c1)OCCc1ccccc1` [saturated form of CAPE (2)] here?
Answer: as effective

Question: Which results are given for `COc1cc(/C=C/C(=O)OCCc2ccccc2)cc(OC)c1O` [compound 9, sinapic acid phenethylester]?
Answer: IC50 (5‐LO [3]): 290 nM; Inhibitory activity against 5‐LO product biosynthesis after incubation with HepaRG cells (HepaRG cells [4]): lost all their inhibitory activity; Half-life in HepaRG cell cultures (HepaRG cells [5]): 4.38 (4.23 - 4.55) Minutes; IC50 (5‐LO [6]): 1910 nM

Question: Which “Inhibition of LT biosynthesis and 5‐LO activity” value (5‐LO [1]) does the source give for `O=C(C=Cc1ccc(O)c(O)c1)NCCc1ccccc1` [amide analogue of CAPE] here?
Answer: reduced potency compared to CAPE

Question: With `CC(c1cc2ccccc2s1)N(O)C(N)=O` (stereo not shown) [Zileuton (1), Zileuton, reference compound] as the compound, how does the “Inhibition … in transfected HEK293 cells” value (5‐LO [2]) read?
Answer: less effective than CAPE (2)

Question: And the “Inhibitory activity against 5‐LO product biosynthesis after incubation with HepaRG cells” value (HepaRG cells [4])?
Answer: steady manner over time

Question: Which “Inhibition … in transfected HEK293 cells” value (5‐LO [2]) does the source give for `O=C(/C=C/c1cc(O)cc(O)c1)OCCc1ccccc1` [compound 6] here?
Answer: without measurable effect; also recorded: without inhibitory activity
